Laboratory results as given in patent publication US20080011613A1, “Method of electrolytically depositing a pharmaceutical coating onto a conductive osteal implant” (priority 2004, published 2008).

Experiment: Precipitation boundary of etidronate in the presence of Ca2+ by NaOH titration
Format: physicochemical
Conditions: Ca:etidronate molar ratio 2:1, titration with NaOH
Protocol: Etidronic acid has a molecular weight of 206.03 (Fluka, Switzerland). The precipitation boundary of etidronate in the presence of Ca^2+ was determined by titration and used for choosing the solution conditions suitable for electrolytic deposition (ELD). A series of 50 mL solutions containing etidronate (15, 10, 9, 5, 4, 2.5, 1.9, 1.25, 1.22, 1.15, 1.10, and 0.625 mM) and Ca(NO3)2 of different concentrations, with Ca:etidronate molar ratio all fixed at 2:1, were prepared and titrated with NaOH solutions until the first visual sign of turbidity (end point/the precipitation boundary). The pH and NaOH volume consumption at end points were recorded and the Ca^2+ and etidronate concentrations at this point was calculated using equation (Eq. 3): [formula] where C is the titrate (etidronate or Ca^2+) concentration (mM) at the end point, C0 is the titrate concentration (mM) before titration, and VNaOH is NaOH volume (mL) consumption at the end point of titration.
After the precipitation boundary was established, etidronate 5.0 mM, Ca^2+ 10 mM, and pH 4.50 were chosen as the solution conditions for ELD. […] This volume also provided reasonable space to accommodate the experiment setup, that is, two electrodes and the fixture.

Etidronate concentration at which no precipitation could be visually judged: < 1.15 mM
SMILES: CC(O)(P(=O)(O)O)P(=O)(O)O [etidronate, 1-hydroxy-ethylidene-1,1-diphosphonate]
